Holding throughout (format): in vivo
For one experiment, the system named is Botrytis cinerea. Kind of experiment: Botrytis test (bean)/protective. Conditions: protective, 3 days after inoculation. The method, then: After the spray coating has dried on, 2 small pieces-of agar covered with Botrytis cinerea are placed on each leaf. The inoculated plants are placed in a darkened humid chamber at 20° C.
3 days after the inoculation, the size of the infected spots on the leaves is evaluated.

In experiment [1] the test system is Erysiphe graminis f.sp.hordei. Kind of experiment: Erysiphe-test (wheat)/curative. Conditions: curative, 200 g/ha, 7 days after inoculation. Here is the method: Solvent: 10 parts by weight of N-methyl-pyrrolidone Emulsifier: 0.6 parts by weight of alkylaryl-polglycolether To produce a suitable preparation of active compound, 1-part by weight of active compound is mixed with the stated amounts of solvent and emulsifier, and the concentrate is diluted with water to the desired concentration. To test for curative activity, young plants are dusted with spores of Erysiphe graminis f.sp.hordei. 48 hours after the inoculation, the plants are sprayed with the preparation of active compound until dew-moist. The plants are placed in a greenhouse at a temperature of about 20° C. and a relative atmospheric humidity of about 80%, in order to promote the development of powdery mildew pustules. Evaluation is carried out 7 days after the inoculation.

Experiment [2] deals with Leptosphaeria nodorum. Kind of experiment: Leptosphaeria nodorum test (wheat)/protective. The conditions noted are these: protective, 10 days after inoculation. The method, then:
Solvent: 100 parts by weight of dimethylformamide
Emulsifier: 0.25 parts by weight of alkylaryl polyglycol ether
(§1) To produce a suitable preparation of active compound, 1-part by weight of active compound is mixed with the stated amounts of solvent and emulsifier, and the concentrate is diluted with water to the desired concentration.
To test for protective activity, young plants are sprayed with the preparation of active compound until dew-moist. After the spray coating has dried on, the plants are sprayed with a spore suspension of Leptosphaeria nodorum. The plants remain for 48 hours in an incubation cabin at 20° C. and 100% relative atmospheric humidity.
(§2) The plants are placed in a greenhouse at a temperature of 15° C. and a relative atmospheric humidity of about 80%.
(§3) Evaluation is effected 10 days after the inoculation.

Experiment [3] relates to Erysiphe graminis f. sp. hordei. The experiment can be described thus: Erysiphe test (wheat) protective. Conditions: 7 days after inoculation. The method, then:
Solvent: 10 parts by weight N-methyl-pyrrolidone
(§4) Emulsifier: 0.6 parts by weight alkylarylpoly-glycolether
as §1
To test for protective activity, young plants are dusted with spores of Erysiphe graminis f. sp. hordei. […]
The plants are placed in a greenhouse at a temperature of about 20° C. and a relative atmospheric humidity of about 80%, in order to promote the development of powdery mildew pustules.
(§5) Evaluation is carried out 7 days after the inoculation.

The next experiment deals with Pyrenophora teres. Kind of experiment: Pyrenophora teres test (barley)/protective. The conditions noted are these: protective, 25 g/ha, 7 days after inoculation. The method, then: (§6) Solvent: 10 parts by weight N-methyl-pyrrolidon
as §4, §1
To test for protective activity, young plants are sprayed with the preparation of active compound until dew moist. After the spray coating has dried off, the plants are sprayed with a conidia suspension of Pyrenophora teres. The plants then remain in an incubation cabin at 20° C. and 100% relative atmospheric humidity for 48 hours.
The plants are placed in a greenhouse at a temperature of about 20° C. and a relative atmospheric humidity of about […].
Evaluation is carried out 7 days after inoculation.

Experiment [4] relates to Leptosphaeria nodorum. Kind of experiment: Leptosphaeria nodorum test (wheat)/curative. The conditions noted are these: curative, 400 g/ha, 10 days after inoculation. The method, then: Solvent: 10 parts by weight of dimethyl-formamide
Emulsifier: 0.6 parts by weight of alkylaryl polyglycol ether
To produce a suitable preparation of active compound, 1-parts by weight of active compound is mixed with the stated amounts of solvent and emulsifier, and the concentrate is diluted with water to the desired concentration.
To test for curative activity, young plants are sprayed with the preparation of active compound until dew-moist. After the spray coating has dried on, the plants are sprayed with a spore suspension of Leptosphaeria nodorum. The plants remain for 48 hours in an incubation cabin at 20° C. and 100% relative atmospheric humidity.
as §2, §3

The test system of experiment [5] is Erysiphe graminis f.sp. hordei. Kind of experiment: Erysiphe test (barley)/protective. Conditions: protective, 50 g/ha, 7 days after inoculation. The method, then:
as §6, §4
To produce a suitable preparation of active compound, 1 part by weight of active compound is mixed with the stated amounts of solvent and emulsifier, and the concentrate is diluted with water to the desired concentration.
To test for protective activity, young plants are sprayed with the preparation of active compound until dew-moist. After the spray coating has dried on, the plants are dusted with spores of Erysiphe graminis f.sp. hordei.
The plants are placed in a greenhouse at a temperature of about 20° C. and a relative atmospheric humidty of about 80%, in order to promote the development of powdery mildew pustules.
as §5

Molecules are shown by their SMILES.

As for `N#Cc1c(Cl)c(Cl)c(Cl)c(C#N)c1Cl` [Chlorothalonil, tetrachloro-isophthalo-dinitrile], the “Degree of effectiveness in % of the untreated control” value in the experiment with Botrytis cinerea (200 ppm) was found to be 37%. Take `CO/C=C(\C(=O)OC)c1ccccc1Oc1cc(Oc2ccccc2C#N)ncn1` [(ηb)]: the “Degree of effectiveness in % of the untreated control” value in experiment [1] is reported as 75%. As to `O=[N+]([O-])c1cc(C(F)(F)F)c(Cl)c([N+](=O)[O-])c1Nc1ncc(C(F)(F)F)cc1Cl` [Fluazinam, fluazinam], in the experiment on Botrytis cinerea (5 ppm), the “Degree of effectiveness in % of the untreated control” value stood at 20%. Consider `CC(C)(C)C(O)(CCc1ccc(Cl)cc1)Cn1cncn1` (stereo not drawn) [Tebuconazole], for which, in the experiment on Leptosphaeria nodorum [2] (spray liquor 25 ppm), the “Degree of effectiveness in % of the untreated control” value is given as 75%. In the case of `COC(=O)Nc1nc2ccccc2[nH]1` [Carbendazim, methyl benzimidazole-2-carbamate], the “Degree of effectiveness in % of the untreated control” value in the experiment with Botrytis cinerea (5 ppm) turned out to be 52%. With `CC1(C(=O)Nc2ccc(O)c(Cl)c2Cl)CCCCC1` [(I)], the “Degree of effectiveness in % of the untreated control” value in experiment [3] (25 g/ha) is reported as 30%; in experiment [3] (200 g/ha), 85%; with Pyrenophora teres, 33%; in experiment [1] it was 30%; in experiment [5], 0%; in the experiment on Botrytis cinerea (5 ppm) it was 51%. In the experiment with Leptosphaeria nodorum [2] (concentration not given), the “Degree of effectiveness in % of the untreated control” value came to 0%. For the same compound, the “Degree of activity in % of the untreated control” value with Leptosphaeria nodorum [4] is given as 25%. For `CO/N=C(\C(=O)OC)c1ccccc1COc1ccccc1C` [(ηb)], the entries for the “Degree of effectiveness in % of the untreated control” value (in experiment [3] (25 g/ha); in the experiment with Pyrenophora teres; in experiment [5]) were 85%, 33% and 85%, respectively. In the experiment with Leptosphaeria nodorum [4], the “Degree of activity in % of the untreated control” value was 49%.

In the case of `CC12CC1(C)C(=O)N(c1cc(Cl)cc(Cl)c1)C2=O` (stereo not drawn) [Procymidone, procymidone], in the experiment on Botrytis cinerea (50 ppm), the “Degree of effectiveness in % of the untreated control” value was found to be 44%. For the compound `Cc1cc(C)nc(Nc2ccccc2)n1` [Pyrimethanil, pyrimethanil], the “Degree of effectiveness in % of the untreated control” value with Botrytis cinerea (10 ppm) came to 0%. For the compound `Cc1ccc(N(SC(F)(Cl)Cl)S(=O)(=O)N(C)C)cc1` [Tolylfluanid, tolylfluanid], in the experiment on Botrytis cinerea (50 ppm), the “Degree of effectiveness in % of the untreated control” value was 32%. Take `CN(C)S(=O)(=O)N(SC(F)(Cl)Cl)c1ccccc1` [Dichlofluanid, dichlofluanid]: in the experiment with Botrytis cinerea (100 ppm), the “Degree of effectiveness in % of the untreated control” value was determined as 32%. As for `CO/C=C(\C(=O)OC)c1ccccc1Oc1cc(Oc2ccccc2C#N)ncn1` [(ηa)], the figures for the “Degree of effectiveness in % of the untreated control” value in experiment [3] (200 g/ha) and in experiment [5] were 79% and 15%, respectively. `O=C1c2ccccc2C(=O)N1SC(Cl)(Cl)Cl` [Phaltan, phaltan]: the “Degree of effectiveness in % of the untreated control” value in the experiment on Botrytis cinerea (50 ppm) came out at 0%.
